# Source: US20170231910A1, “PHARMACEUTICAL FORMULATIONS OF CHELATING AGENTS AS A METAL REMOVAL TREATMENT SYSTEM” (ZONEONE PHARMA, INC., priority 2014, published 2017)
# Structures can show the parent of a compound that is named as a salt.
# Experiments:
# [1] = PK of DFO in plasma of mice after liposomal DFO or Desferal; format: in vivo, CF-1 female mice; conditions: 100 mg/kg
# Protocol: Liposomes containing egg PC/Chol (3 mol/2 mol, LDFO-1), egg PC/DOPG/Chol (2.7 mol/0.3 mol/2 mol, LDFO-2), and HSPC/Chol (3 mol/2 mol, LDFO-4) containing 500 mM ammonium sulfate were prepared as in Example 1. DFO was remote loaded as in Example 20.
# After loading the liposomes were purified by dialysis versus HBS pH 6.5. The liposomes were sterilized by filtration through 0.2 um PES filters and analyzed for drug and lipid content. The liposomal DFO were administered to CF-1 female mice at 100 mg/kg (n=3) and at various times the animals were sacrificed and blood taken.
# After processing to plasma, DFO was extracted from plasma by mixing with 6 volumes of methanol containing 0.1% trifluoroacetic acid in an eppendorf tube. The mixtures were vortexed twice for 10 seconds then placed at −80° C. for 1 h. The samples were thawed and centrifuged for 12,000 rpm for 10 min at 4° C. and the supernatant analyzed for DFO by HPLC as described herein. […] By comparison DFO was undetectable beyond 1 h after dosing with Desferal®.
# [2] = test system: Iron Overloaded Mouse Model; experiment: Liver iron removal from iron overloaded mouse model (ferrozine assay); format: in vivo; conditions: iron-dextran overloaded mice, IV 100 mg/kg chelator on day 7 and day 10
# Protocol: LDFO formulations were prepared as described in Example 1. Both formulations were composed of HSPC/cholesterol (3/0.5 (mol/mol)). One formulation was prepared using 250 mM ammonium sulfate (LDFO-AS) as the trapping agent and the second formulation was prepared using 250 mM ascorbate phosphate (LDFO-AP) as the trapping agent and all other components and DFO loading procedures of the formulations were identical. Mice were overloaded with a single IV injection of iron-dextran at 100 mg/kg Fe. Overloaded mice were treated with each formulation IV at 100 mg/kg chelator on day 7 and day 10. The mice were sacrificed after the second treatment and the livers were analyzed for iron content using a ferrozine assay (Riemer et al. 2004)
compound,measurement,setting,value
"CC(=O)N(O)CCCCCNC(=O)CCC(=O)N(O)CCCCCNC(=O)CCC(=O)N(O)CCCCCN [Desferal, deferoxamine mesylate]",DFO in plasma after dosing,[1]; beyond 1 h after dosing,undetectable
same,initial dose (ID) of DFO retained in the plasma at 24 h,"[1]; IV, 24 h",undetectable
same,mean liver iron content after treating,[2],229 mg/kg
